The text below walks through data of patent US10034880B2, “Ophthalmic suspension formulation” (Sumitomo Dainippon Pharma Co., Ltd., priority 2014, dated 2018).

Entries after “also recorded” stand apart in the source; their conditions may differ. Like-named read-outs stand apart in the source and are kept apart here.

Series [1] can be described thus: Evaluation of transferability to posterior eye segment in rats (I-1) and (I-2). The format is in vivo. The note with it: SDT, rat, oral repetitive administration 1.0 mg/kg once a day for 21 days, 60 minutes after final administration. As for the experimental part: To both eyes of rat model of diabetes, ophthalmic suspension formulation A1 wherein Compound A was suspended in a generally-tolerated dose as a suspension formulation (200 mg/mL) or ophthalmic solution formulation Z wherein Compound A was dissolved (400 μg/mL) was administered in eyedrops in the amount of 5 μL for one eye (which is a maximum tolerated dose for eyedrops in rats) totally 5 times at intervals of 5 minutes. 60 minutes after the administration, each concentration of Compound A in cornea, retina and plasma was measured.
Eyedrop has a limitation about tolerated volume of one shot, which is different from other dosage forms. Thus, the delivery amount of the drug to the target tissue which is obtained from eyedrop of a maximum tolerated dose is important. The tolerated volume varies depending on animal species, and the maximum volume in rats is 5 μL for one eye. […]
In addition, Diabetic Retinopathy, INTECH, Chapter 15 “Prophylactic Medical Treatment of Diabetic Retinopathy”, Akihiro Kakehashi et al. disclose an experiment of oral repetitive administration of Compound A to SDT rats, wherein the dose of Compound A making the retinal capillary weakened and the VEGF production in retina inhibited is 1.0 mg/kg. […] 60 minutes after the final administration, each concentration of Compound A in cornea, retina and plasma was measured.

Series [2] can be described thus: Evaluation of transferability to posterior eye segment in rats (V). The class given is in vivo, SD rats. The note with it: ophthalmic suspension formulations, eyedrops 5 μL for one eye once; 60 minutes after administration. The protocol: To both eyes of SD rats, ophthalmic formulation I, ophthalmic formulation F, ophthalmic formulation G, ophthalmic formulation X1, ophthalmic formulation X2, ophthalmic formulation Y1, or ophthalmic formulation Y2 was administered in eyedrops in the amount of 5 μL for one eye once. 60 minutes after the administration, each concentration of Compound A in retina was measured.

In series [3] the target is aldose reductase (Homo sapiens, UniProt P15121). Description: AR inhibitory action. The format is biochemical.
The test system of series [4] is VEGF production in retina. As to conditions: oral repetitive administration, SDT rats; cited from earlier work.
In series [5] the test system is normal human retinal capillary endothelial cell (HREC). The experiment in a line: Cell migration assay: inhibition of facilitatory action of cell migration by VEGF stimulation. The format is cell-based. The protocol:
The anti-VEGF action of Compound A was evaluated by an experimental method (cell migration assay) described in J Diabetes Complications. 2012; 26(5):369-77. In the experiment, a normal human retinal capillary endothelial cell (HREC) which was obtained from Cell System Co., LTD. was used, and a cell culture used herein was CS-C medium (Cell System Co., LTD.). […] As for Lucentis, its formulation stock solution was diluted with the cell culture, wherein the dilution ratio was 50 μL of the formulation stock solution per 4 mL of the cell culture, and the diluted solution was used in the experiment. The HREC was seeded in 6-well plate, and it was incubated until the confluency became 80-90%. 20-24 hours before assaying the cell migration by the VEGF stimulation, the cell culture was changed to a cell culture containing 0.1% fetal bovine serum. Then, the culture cell monolayer was wounded with a 200 μL pipette tip at one point per well, and the width of the wounds were measured with a microscope. […] About 18 hours after changing the cell culture, each width of the wounds was measured with a microscope, and the anti-VEGF action was evaluated by comparing the width with that of the just-wounded one.

For the molecule `O=C1C[C@@]2(C(=O)N1)C(=O)N(Cc1ccc(Br)cc1F)C(=O)c1cccn12` [Compound A, (R)-(−)-2-(4-bromo-2-fluorobenzyl)-1,2,3,4-tetrahydropyrrolo[1,2-a]pyrazine-4-spiro-3′-pyrrolidine-1,2′,3,5′-tetrone], the Kp at 60 min in series [1] (cornea and plasma (cornea/plasma ratio), read-out: concentration ratio cornea to plasma (plasma:cornea:retina, plasma = 1)) is around 1; in series [1] (retina and plasma (retina/plasma ratio), po, 1 mg/kg, read-out: retina/plasma ratio) it was around 1. Also, the delivery to retina entry in series [2] is listed as “delivered to retina much more than the ophthalmic suspension formulation comprising Compound B or C”. The same molecule displayed a Ki in series [3] of 0.23 nM. Further, the “AR inhibitory action, action ratio relative to Compound A” value in series [3] (figure in brackets) came out at 1.0 ×. Further, in series [4], the “oral dose making the retinal capillary weakened and the VEGF production in retina inhibited” value is 1.0 mg/kg. The “action inhibiting the HREC migration, comparison” value in series [5] (1 nM Compound A, VEGF stimulation, about 18 hours) is reported as “in the same level as that of 100 nM ((28 ng/mL)/L) Compound C; also recorded: more potent than that of 1000 nM ((320 ng/mL)/L) Compound B; also recorded: in the same level as Lucentis”.
For `CC(/C=C1\SC(=S)N(CC(=O)O)C1=O)=C\c1ccccc1` [Compound B, [5-[(1Z,2E)-2-methyl-3-phenylallylidene]-4-oxo-2-thioxothiazolidin-3-yl]acetic acid], the delivery to retina result in series [2] is listed as “hardly delivered to retina”.
Same read-out and setting: under `NC(=O)[C@@H]1C[C@]2(NC(=O)NC2=O)c2cc(F)ccc2O1` [Compound C, (2S,4S)-6-fluoro-2′,5′-dioxospiro[chroman-4,4′-imidazolidine]-2-carboxamide] stands “hardly delivered to retina”.

B1: Lucentis: anti-VEGF antibody formulation (general name: ranibizumab) (antibody, chains of the INN, looked up, V domains shown)
VH: EVQLVESGGGLVQPGGSLRLSCAASGYDFTHYGMNWVRQAPGKGLEWVGWINTYTGEPTYAADFKRRFTFSLDTSKSTAYLQMNSLRAEDTAVYYCAKYPYYYGTSHWYFDVWGQGTLVTVSS
VL: DIQLTQSPSSLSASVGDRVTITCSASQDISNYLNWYQQKPGKAPKVLIYFTSSLHSGVPSRFSGSGSGTDFTLTISSLQPEDFATYYCQQYSTVPWTFGQGTKVEIK
B1: the “inhibition of HREC migration facilitated by VEGF stimulation” value in series [5] (about 18 hours after changing the cell culture) is on record as “inhibited the migration”.
